Measurements as given in patent US10407414B2, “Mannose derivatives for treating bacterial infections” (priority 2015, dated 2019).

Tested on: bacterial strain LF82 binding to the glycoprotein BSA-(Mannose)3 (FimH antagonists)
Experiment: Bacterial Binding Assay (BBA)
Assay type: cell-based, Escherichia coli
Settings: read-out: Bacterial Binding Assay IC50 ± SEM
Procedure, shortened: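 Luciferase-expressing E. coli LF82, grown overnight at 37 °C without shaking, added as 2×10^8 bacteria/mL suspension with compound in BSA/D-PBS binding buffer. Wells were coated with 0.5–2 μg/mL BSA-(Man)3 and BSA-blocked, with 40–75 min binding at room temperature. After washing, adherent bacteria were read by luciferase luminescence and IC50 derived.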

In order of rising IC50:
1. Cc1ccc(C#N)cc1-c1cc(C#C[C@H]2O[C@H](CO)[C@@H](O)[C@H](O)[C@@H]2O)c2[nH]ncc2c1 [Compound 89, 4-methyl-3-[7-[2-[(2R,3S,4R,5S,6R)-3,4,5-trihydroxy-6-(hydroxymethyl)tetrahydropyran-2-yl]ethynyl]-1H-indazol-5-yl]benzonitrile]  0.5 ± 0.04 nM
2. O=[N+]([O-])c1ccc(-c2cc(C#C[C@H]3O[C@H](CO)[C@@H](O)[C@H](O)[C@@H]3O)c3[nH]ncc3c2)cc1 [Compound 28, (2R,3S,4R,5S,6R)-2-(hydroxymethyl)-6-[2-[5-(4-nitrophenyl)-1H-indazol-7-yl]ethynyl]tetrahydropyran-3,4,5-triol]  0.6 ± 0.4 nM
3. Cc1ccccc1-c1cc(C#C[C@H]2O[C@H](CO)[C@@H](O)[C@H](O)[C@@H]2O)c2[nH]ncc2c1 [Compound 26]  0.7 ± 0.3 nM
4. CCc1ccccc1-c1cc(C#C[C@H]2O[C@H](CO)[C@@H](O)[C@H](O)[C@@H]2O)c2[nH]ncc2c1 [Compound 87]  1 nM
5. CN(C)c1ccc(-c2cc(C#C[C@H]3O[C@H](CO)[C@@H](O)[C@H](O)[C@@H]3O)c3[nH]ncc3c2)cc1 [Compound 29, (2R,3S,4R,5S,6R)-2-[2-[5-[4-(dimethylamino)phenyl]-1H-indazol-7-yl]ethynyl]-6-(hydroxymethyl)tetrahydropyran-3,4,5-triol]  1 ± 0.7 nM
6. CN(CC#Cc1cc(C#C[C@H]2O[C@H](CO)[C@@H](O)[C@H](O)[C@@H]2O)c2[nH]ncc2c1)Cc1ccccc1 [Compound 51, (2R,3S,4R,5S,6R)-2-[2-[5-[3-[benzyl(methyl)amino]prop-1-ynyl]-1H-indazol-7-yl]ethynyl]-6-(hydroxymethyl)tetrahydropyran-3,4,5-triol]  3 ± 0.4 nM
7. CNC(=O)c1ccc(F)c(-c2cc(C#C[C@H]3O[C@H](CO)[C@@H](O)[C@H](O)[C@@H]3O)c3[nH]ncc3c2)c1 [Compound 90, 4-fluoro-N-methyl-3-[7-[2-[(2R,3S,4R,5S,6R)-3,4,5-trihydroxy-6-(hydroxymethyl)tetrahydropyran-2-yl]ethynyl]-1H-indazol-5-yl]benzamide]  3 nM
8. CCCCc1cc(C#C[C@H]2O[C@H](CO)[C@@H](O)[C@H](O)[C@@H]2O)c2nn(C)cc2c1 [Compound 23, (2R,3S,4R,5S,6R)-2-[2-(5-butyl-2-methyl-indazol-7-yl)ethynyl]-6-(hydroxymethyl)tetrahydropyran-3,4,5-triol]  9 nM
9. CC(C)CNCC#Cc1cc(C#C[C@H]2O[C@H](CO)[C@@H](O)[C@H](O)[C@@H]2O)c2[nH]ncc2c1 [Compound 52, (2R,3S,4R,5S,6R)-2-(hydroxymethyl)-6-[2-[5-[3-(isobutylamino)prop-1-ynyl]-1H-indazol-7-yl]ethynyl]tetrahydropyran-3,4,5-triol]  22 ± 10 nM
10. COc1ccc(Cn2ncc3cc(Br)cc(C#C[C@H]4O[C@H](CO)[C@@H](O)[C@H](O)[C@@H]4O)c32)cc1 [Compound 18, (2R,3S,4R,5S,6R)-2-[2-[5-bromo-1-[(4-methoxyphenyl)methyl]indazol-7-yl]ethynyl]-6-(hydroxymethyl)tetrahydropyran-3,4,5-triol]  67 ± 26 nM
11. O=C(O)c1cc(C#C[C@H]2O[C@H](CO)[C@@H](O)[C@H](O)[C@@H]2O)c2[nH]ncc2c1 [Compound 58, 7-[2-[(2R,3S,4R,5S,6R)-3,4,5-trihydroxy-6-(hydroxymethyl)tetrahydropyran-2-yl]ethynyl]-1H-indazole-5-carboxylic acid]  74 ± 15 nM
12. OC[C@H]1O[C@H](C#Cc2cccc3cn[nH]c23)[C@@H](O)[C@@H](O)[C@@H]1O [Compound 1, (2R,3S,4R,5S,6R)-2-(hydroxymethyl)-6-[2-(1H-indazol-7-yl)ethynyl]tetrahydropyran-3,4,5-triol]  98 ± 22 nM
13. OC[C@H]1O[C@H](C#Cc2cccc3nn[nH]c23)[C@@H](O)[C@@H](O)[C@@H]1O [Compound 8, (2R,3S,4R,5S,6R)-2-[2-(3H-benzotriazol-4-yl)ethynyl]-6-(hydroxymethyl)tetrahydropyran-3,4,5-triol]  180 ± 40 nM
